#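 All cell lines were grown in 96-well plates and treated with compound for 48 hours. GI50: concentration for 50% inhibition of growth.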 Active and inactive are the calls of the source. Cut-off read from the data, not from the text of the source: active = GI50 up to about 1.1 µM and inactive = higher.
# Tests used:
# Experiment in all cases: DTP human tumour cell line panel, 48 h
# [1] = tested on: UACC-62
# [2] = tested on: SF-295
# [3] = tested on: OVCAR-3
# [4] = tested on: 786-0
# [5] = tested on: RXF 631
# [6] = tested on: RXF 393
# [7] = tested on: NCI-H226
# [8] = tested on: EKVX
# [9] = tested on: DMS-273
# [10] = tested on: CAKI-1
# [11] = tested on: DLD-1
# [12] = tested on: SNB-75
# [13] = tested on: NCI-H23
# [14] = tested on: A498
# [15] = tested on: MOLT-4
# [16] = tested on: OVCAR-8
# [17] = tested on: HT-29
# [18] = tested on: SNB-78
# [19] = tested on: Malme-3M
# [20] = tested on: HOP-92
# [21] = tested on: SW-620
# [22] = tested on: IGROV-1
# [23] = tested on: OVCAR-4
# [24] = tested on: HCT-15
# [25] = tested on: NCI-H522
# [26] = tested on: RPMI-8226
# [27] = tested on: DMS-114
# [28] = tested on: SK-OV-3
# [29] = tested on: SN12C
# [30] = tested on: SK-MEL-2
# [31] = tested on: SNB-19
# [32] = tested on: M14
# [33] = tested on: HCT-116
# [34] = tested on: UO-31
# [35] = tested on: COLO 205
# [36] = tested on: LXFL 529
# [37] = tested on: UACC-257
# [38] = tested on: K562
# [39] = tested on: KM-20L2
# [40] = tested on: SK-MEL-28
# [41] = tested on: XF498
# [42] = tested on: M19-MEL
# [43] = tested on: SK-MEL-5
# [44] = tested on: OVCAR-5
# [45] = tested on: SF-268
# [46] = tested on: A549
# [47] = tested on: LOX IMVI
# [48] = tested on: HL-60
# [49] = tested on: SF-539
# [50] = tested on: TK-10
# [51] = tested on: ACHN
# [52] = tested on: HCC 2998
# [53] = tested on: NCI-H460
# [54] = tested on: CCRF-CEM
# [55] = tested on: KM12
# [56] = tested on: U-251
# [57] = tested on: HOP-62
compound,measurement,setting,value
N#C/C(=C1\OC(=N)C(c2ccc(Cl)cc2Cl)C1=O)c1ccc(Cl)cc1Cl (centres undefined),GI50,[1],> 100 µM (inactive)
same,GI50,[2],> 100 µM (inactive)
same,GI50,[3],> 100 µM (inactive)
same,GI50,[4],> 100 µM (inactive)
same,GI50,[5],> 100 µM (inactive)
same,GI50,[6],> 100 µM (inactive)
same,GI50,[7],> 100 µM (inactive)
same,GI50,[8],24.2 µM (inactive)
same,GI50,[9],> 100 µM (inactive)
same,GI50,[10],> 100 µM (inactive)
same,GI50,[11],> 100 µM (inactive)
same,GI50,[12],58.9 µM (inactive)
same,GI50,[13],> 100 µM (inactive)
same,GI50,[14],> 100 µM (inactive)
same,GI50,[15],> 100 µM (inactive)
same,GI50,[16],> 100 µM (inactive)
same,GI50,[17],> 100 µM (inactive)
same,GI50,[18],> 100 µM (inactive)
same,GI50,[19],> 100 µM (inactive)
same,GI50,[20],80.5 µM (inactive)
same,GI50,[21],> 100 µM (inactive)
same,GI50,[22],> 100 µM (inactive)
same,GI50,[23],> 100 µM (inactive)
same,GI50,[24],> 100 µM
same,GI50,[25],> 100 µM (inactive)
same,GI50,[26],> 100 µM (inactive)
same,GI50,[27],> 100 µM (inactive)
same,GI50,[28],> 100 µM (inactive)
same,GI50,[29],> 100 µM (inactive)
same,GI50,[30],> 100 µM (inactive)
same,GI50,[31],> 100 µM (inactive)
same,GI50,[32],> 100 µM (inactive)
same,GI50,[33],> 100 µM (inactive)
same,GI50,[34],56.6 µM (inactive)
same,GI50,[35],> 100 µM (inactive)
same,GI50,[36],> 100 µM (inactive)
same,GI50,[37],> 100 µM (inactive)
same,GI50,[38],> 100 µM (inactive)
same,GI50,[39],> 100 µM (inactive)
same,GI50,[40],> 100 µM (inactive)
same,GI50,[41],86.9 µM (inactive)
same,GI50,[42],> 100 µM (inactive)
same,GI50,[43],> 100 µM (inactive)
same,GI50,[44],> 100 µM (inactive)
same,GI50,[45],> 100 µM (inactive)
same,GI50,[46],> 100 µM (inactive)
same,GI50,[47],> 100 µM (inactive)
same,GI50,[48],> 100 µM (inactive)
same,GI50,[49],> 100 µM (inactive)
same,GI50,[50],> 100 µM (inactive)
same,GI50,[51],> 100 µM (inactive)
Cc1ccc(-c2cc(=O)c3cc(C)c(C)c(C(=O)O)c3o2)cc1,GI50,[1],> 100 µM (inactive)
same,GI50,[52],> 100 µM (inactive)
same,GI50,[2],> 100 µM (inactive)
same,GI50,[3],> 100 µM (inactive)
same,GI50,[4],> 100 µM (inactive)
same,GI50,[5],> 100 µM (inactive)
same,GI50,[53],> 100 µM (inactive)
same,GI50,[8],> 100 µM (inactive)
same,GI50,[9],> 100 µM (inactive)
same,GI50,[11],> 100 µM (inactive)
same,GI50,[12],47.9 µM (inactive)
same,GI50,[13],> 100 µM (inactive)
same,GI50,[54],> 100 µM (inactive)
same,GI50,[14],> 100 µM (inactive)
same,GI50,[15],> 100 µM (inactive)
same,GI50,[16],> 100 µM (inactive)
same,GI50,[17],> 100 µM (inactive)
same,GI50,[18],> 100 µM (inactive)
same,GI50,[19],> 100 µM (inactive)
same,GI50,[20],> 100 µM (inactive)
same,GI50,[55],> 100 µM (inactive)
same,GI50,[21],> 100 µM (inactive)
same,GI50,[22],> 100 µM (inactive)
same,GI50,[23],> 100 µM (inactive)
same,GI50,[24],> 100 µM
same,GI50,[25],24.3 µM (inactive)
same,GI50,[26],> 100 µM (inactive)
same,GI50,[27],> 100 µM (inactive)
same,GI50,[28],> 100 µM (inactive)
same,GI50,[56],> 100 µM (inactive)
same,GI50,[29],> 100 µM (inactive)
same,GI50,[30],> 100 µM (inactive)
same,GI50,[57],> 100 µM (inactive)
same,GI50,[31],> 100 µM (inactive)
same,GI50,[32],> 100 µM (inactive)
same,GI50,[33],> 100 µM (inactive)
same,GI50,[34],> 100 µM (inactive)
same,GI50,[35],> 100 µM (inactive)
same,GI50,[36],> 100 µM (inactive)
same,GI50,[37],> 100 µM (inactive)
same,GI50,[38],> 10 µM (inactive)
same,GI50,[39],> 100 µM (inactive)
same,GI50,[40],> 100 µM (inactive)
same,GI50,[41],> 100 µM (inactive)
same,GI50,[42],> 100 µM (inactive)
same,GI50,[43],> 100 µM (inactive)
same,GI50,[44],> 100 µM (inactive)
same,GI50,[45],> 100 µM (inactive)
same,GI50,[46],> 100 µM (inactive)
same,GI50,[47],> 100 µM (inactive)
same,GI50,[49],29.9 µM (inactive)
same,GI50,[50],> 100 µM (inactive)
same,GI50,[51],> 100 µM (inactive)

# From ChEMBL document CHEMBL1201862, “PubChem BioAssay data set” (2004)
